The data set is described as follows: Test Example 2: identification of decomposition products of compound (I) by mass spectra. The class given is physicochemical. The note with it: composition with compound (I-A), compound (I-B), dicamba diglycolamine salt, acetic acid and potassium hydroxide, 50° C. for 8 weeks. The procedure:
Test Example 2: Identification of Decomposition Product of Compound (I)
Mass spectra were measured for compositions containing the compound (I-A), the compound (I-B), a dicamba diglycolamine salt, acetic acid and potassium hydroxide, which were left to stand in an incubator at 50° C. for 8 weeks.
The decomposition product a is obtained as a result of ring-opening of a uracil ring due to the cleavage of a C—N bond (bond between an N atom at the 3-position and a C atom at the 4-position) included in an imide structure constituting a uracil ring structure of the compound (I-A), and a bond between an N atom at the 1-position and a C atom at the 6-position. The decomposed product b is obtained as a result of the addition of diglycolamine (DGA) to the terminal ethyl ester moiety, in addition to the ring-opening of the uracil ring of the compound (I-A).

Each structure is given as a SMILES string.

As for `CCOC(=O)COc1ncccc1Oc1cc(-n2c(=O)cc(C(F)(F)F)n(C)c2=O)c(F)cc1Cl` [compound (I-A)], the decomposition products confirmed entry is “decomposition products a and b”.

Regarding `C#CCN1C(=O)COc2cc(F)c(N3C(=O)C4=C(CCCC4)C3=O)cc21` [compound (I-B)], the decomposition products confirmed result is “decomposition product c”.
